# Measured values published in US8895695B2, “Template-fixed beta-hairpin peptidomimetics with CXCR4 antagonizing activity” (priority 2003, dated 2014).
# Bridge positions count the residues as written; N and C are the ends. Square brackets hold non-standard residues; d marks the D form. Peptide text beside a SMILES is read from it. 2Nal = N[C@@H](Cc1ccc2ccccc2c1)C(=O)O; Cit = NC(=O)NCCC[C@H](N)C(=O)O
# Columns and labels:
# in vitro = conditions: human, HELA cells (Acc57)
# [1] = test system: human red blood cells (hRBC); assay: Hemolysis; type: cell-based
# Procedure, shortened: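 Washed fresh human erythrocytes (20% v/v, about 0.9×10^9 cells/ml final) incubated with peptide at 100 μM for 1 h at 37° C. Supernatant diluted 20-fold and OD540 read. Percent hemolysis relative to 0.1% Triton X-100 in H2O (100%), with PBS alone as 0%.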
# CXCR4 = CXCR4 (Homo sapiens, UniProt P61073); assay: Ca2+-assay method 1: CXCR4-antagonizing activity; type: cell-based; parameters: expressed in transfected cells; conditions: method 1 (Ex. 1-53), CXCR4 transfected pre-B cells, Fura-2; read-out: IC50 (nM) Ca^2+ assay
# Chain of CXCR4 (P61073 whole entry): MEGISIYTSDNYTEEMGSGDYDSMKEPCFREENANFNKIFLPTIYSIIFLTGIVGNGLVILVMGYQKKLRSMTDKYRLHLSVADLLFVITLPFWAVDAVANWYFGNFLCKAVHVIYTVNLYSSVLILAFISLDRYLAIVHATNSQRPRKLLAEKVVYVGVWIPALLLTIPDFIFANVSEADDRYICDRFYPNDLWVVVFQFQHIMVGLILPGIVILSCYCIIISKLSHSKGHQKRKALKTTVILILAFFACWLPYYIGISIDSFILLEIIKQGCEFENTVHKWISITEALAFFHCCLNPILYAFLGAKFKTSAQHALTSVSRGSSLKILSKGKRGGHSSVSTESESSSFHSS
# Experimental: 2.2. Ca^2+-Assay: CXCR4-Antagonizing Activity of the Peptides.
# The cells were washed free from Fura-2-AM with a platelet centrifuge and resuspended in 800 μl MSB containing 5 mM D-Glucose. The peptides to be administered were diluted to a 100 fold end concentration in MSB/0.2% PPL, and 8 μl were injected. […] Measurements were done under continuous stirring at 37° C. The signal intension was calibrated with 3 mM CaCl2/[…] lonomycin (maximal fura-2-acetoxymethylester saturation) and 10 μM MnCl2 (minimal Fura-2-acetoxymethylester saturation) and [Ca^2+]i-changes are presented in % fora-2-acetoxymethylester saturation. The rate of [Ca^2+]i-changes was calculated on the basis of the initial [Ca^2+]i-changes and plotted in dependence of chemokine concentration to obtain a sigmoidal curve and to determine the IC50 values.
# Osmolarity: 310 mOsm adjusted with NaOH or HCl, adjusted with H2O or PBS.
# MSB plus: 5 mM D-glucose in MSB (50 mg/50 mL).
# Fura 2-acetoxymethylester: 1 mM stock solution in dimethylsulfoxide.
# CCRF-CEM cells = assay: Chemotactic assay (cell migration assay); type: cell-based; conditions: 1 nM SDF-1, 4 hours
# Experimental: (§1) All fine chemicals came from Merck (Darmstadt, Germany).
# 2.7. Chemotactic Assay (Cell Migration Assay)
# The chemotactic response of CCRF-CEM cells to a gradient of stromal cell-derived factor 1α (SDF-1) was measured using disposable assay plates from Neuroprobe (5μ pore size) (Gaithersburg, Md.), according to the manufacturer's directions and references therein [especially ref. 8, below]. Briefly, one 175 cm^2 flask was washed once with Dubecco's phosphate buffered saline (DPBS), and trypsinized for 10 minutes or until cells had lifted. The trypsin was neutralized by the addition of fresh medium containing serum and the cells were pelleted, washed once in DPBS, and resuspended at 1-0.5×10^7 cells/ml in RPMI+0.5% bovine serum albumin (BSA). 45 μl of cell suspension were mixed with 5 μl of 10-fold concentrated PEM peptide diluted in the same assay medium. […] The optical absorbance at 595 nm (ABS595) was read using a Tecan Genios plate reader with Magellan software. The number of cells migrated was determined by comparing ABS595 values against a standard curve generated with a known number of cells in the assay plate and were plotted against SDF-1 concentration to obtain a sigmoidal curve and to determine the IC50 values. The values for IC50 were determined using the Trendline function in Microsoft Excel by fitting a logarithmic curve to the averaged datapoints.
# [2] = Cytotoxicity assay (MTT reduction), HELA cells; conditions: human, HELA cells (Acc57);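 note: MTT reduction read as absorbance at 595 nm, blank-corrected and expressed as percent growth relative to the time-zero cell reading, triplicate wells per concentration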
# [3] = test system: 'CCR5' cells / Hut/4-3 cells co-cultivation; assay: FIGS-Assay; type: cell-based; conditions: 200 nM peptide, 48 hours of co-cultivation
# Experimental: The assay was performed according to ref. 5, below. Stock dilutions of the peptides (10 mM) were prepared by dissolving in 10 mM Tris-HCl at room temperature. Stock solutions were kept at +4° C., light protected. Working dilutions were prepared extemporaneously by serial dilution in Phosphate Buffered Saline (PBS) and added in a final volume of 10 μl directly to the cell cultures. After 48 hours of co-cultivation the cultures were rinsed with PBS and then exposed to glutaraldehyde/formaldehyde (0.2%/2%) in PBS for five minutes. For photometric quantification the fixed cultures were subsequently incubated with ortho-nitro-phenyl-galactopyranoside (ONPG) as a β-galactosidase substrate, which was enzymatically converted into the chromophore ortho-nitrophenol (ONP). The read out is directly obtained by measuring optical density of wells at 405 nm in an iEMS 96well-plate reader.
# as §1
smiles,measurement,setting,value
CC(C)[C@@H]1NC(=O)[C@H](CCCNC(N)=O)NC(=O)[C@H](CCCNC(=N)N)NC(=O)[C@H](Cc2ccc(O)cc2)NC(=O)[C@@H]2CCCN2C(=O)[C@H]2CCCN2C(=O)[C@H](CCCCN)NC(=O)[C@H](CCCNC(N)=O)NC(=O)[C@H](Cc2ccc(O)cc2)NC(=O)[C@H](C(C)C)NC(=O)[C@H](Cc2ccc3ccccc3c2)NC(=O)[C@H](CCCNC(=N)N)NC(=O)[C@H](CCCNC(=N)N)NC(=O)[C@H](CCCNC(=N)N)NC1=O [Ex. 6] (cyclo(YR[Cit]VRRR[2Nal]VY[Cit]K[dP]P)),CC50 at 48 h,in vitro,103 µM
same,Hemolysis at 100 μM,[1],0.6%
same,IC50,CXCR4,1930 nM
CC(C)[C@@H]1NC(=O)[C@H](Cc2ccc3ccccc3c2)NC(=O)[C@H](CCCNC(=N)N)NC(=O)[C@H](CCCNC(=N)N)NC(=O)[C@H]2CCCN2C(=O)[C@H](CCCNC(N)=O)NC(=O)[C@H](CCCNC(=N)N)NC(=O)[C@H](C(C)C)NC(=O)[C@H](CCCNC(N)=O)NC(=O)[C@H](CCCNC(=N)N)NC(=O)[C@H](Cc2ccc(O)cc2)NC(=O)[C@@H]2CCCN2C(=O)[C@H]2CCCN2C(=O)[C@H](CCCCN)NC(=O)[C@H](CCCNC(N)=O)NC(=O)[C@H](Cc2ccc(O)cc2)NC1=O [compound 25] (cyclo(YR[Cit]VR[Cit][dP]RR[2Nal]VY[Cit]K[dP]P)),CC50 at 48 h,in vitro,108 µM
same,Hemolysis at 100 μM,[1],0%
same,IC50,CXCR4,1000 nM
CC(C)[C@@H]1NC(=O)[C@H](Cc2ccc3ccccc3c2)NC(=O)[C@H](CCCNC(=N)N)NC(=O)[C@@H](CCCNC(=N)N)NC(=O)[C@H](CCCNC(=N)N)NC(=O)[C@H](C(C)C)NC(=O)[C@H](CCCNC(N)=O)NC(=O)[C@H](CCCNC(=N)N)NC(=O)[C@H](Cc2ccc(O)cc2)NC(=O)[C@@H]2CCCN2C(=O)[C@H]2CCCN2C(=O)[C@H](CCCCN)NC(=O)[C@H](CCCNC(N)=O)NC(=O)[C@H](Cc2ccc(O)cc2)NC1=O [compound 2] (cyclo(YR[Cit]VR[dR]R[2Nal]VY[Cit]K[dP]P)),CC50 at 48 h,in vitro,97 µM
same,Hemolysis at 100 μM,[1],0.9%
same,IC50,CXCR4,2830 nM
N=C(N)NCCC[C@@H]1NC(=O)CNC(=O)CNC(=O)[C@H](CCCNC(=N)N)NC(=O)[C@@H]2CSSC[C@H](NC(=O)[C@H](Cc3ccc4ccccc4c3)NC(=O)[C@H](CCCNC(=N)N)NC1=O)C(=O)N[C@@H](Cc1ccc(O)cc1)C(=O)N[C@@H](CCCNC(N)=O)C(=O)N[C@@H](CCCCN)C(=O)N1CCC[C@@H]1C(=O)N1CCC[C@H]1C(=O)N[C@@H](Cc1ccc(O)cc1)C(=O)N[C@@H](CCCNC(=N)N)C(=O)N[C@@H](CCCNC(N)=O)C(=O)N2 [Ex. 52] (cyclo(YR[Cit]CRGGRR[2Nal]CY[Cit]K[dP]P); disulfide 4-11),IC50,CCRF-CEM cells,2.75 µM
same,CC50 at 48 h,[2],99 µM
same,Hemolysis at 100 μM,[1],0%
same,FIGS % inhibition at 200 nM,[3],95.4%
same,IC50,CXCR4,3.1 nM
CC(C)[C@@H]1NC(=O)[C@H](CCCNC(=N)N)NC(=O)[C@@H]2CSSC[C@H](NC(=O)[C@H](Cc3ccc4ccccc4c3)NC(=O)[C@H](CCCNC(=N)N)NC(=O)[C@H](CCCNC(=N)N)NC(=O)CNC1=O)C(=O)N[C@@H](Cc1ccc(O)cc1)C(=O)N[C@@H](CCCNC(N)=O)C(=O)N[C@@H](CCCCN)C(=O)N1CCC[C@@H]1C(=O)N1CCC[C@H]1C(=O)N[C@@H](Cc1ccc(O)cc1)C(=O)N[C@@H](CCCNC(=N)N)C(=O)N[C@@H](CCCNC(N)=O)C(=O)N2 [compound 53] (cyclo(YR[Cit]CRVGRR[2Nal]CY[Cit]K[dP]P); disulfide 4-11),CC50 at 48 h,[2],86 µM
same,Hemolysis at 100 μM,[1],0.2%
same,FIGS % inhibition at 200 nM,[3],91.8%
same,IC50,CXCR4,57.8 nM
CC(C)[C@@H]1NC(=O)[C@H](Cc2ccc3ccccc3c2)NC(=O)[C@H](CCCNC(=N)N)NC(=O)[C@H](CCCNC(=N)N)NC(=O)[C@H]2CCCN2C(=O)[C@H](Cc2ccccc2)NC(=O)[C@H](CCCNC(=N)N)NC(=O)[C@H](Cc2ccccc2)NC(=O)[C@H](CCCNC(N)=O)NC(=O)[C@H](CCCNC(=N)N)NC(=O)[C@H](Cc2ccc(O)cc2)NC(=O)[C@@H]2CCCN2C(=O)[C@H]2CCCN2C(=O)[C@H](CCCCN)NC(=O)[C@H](CCCNC(N)=O)NC(=O)[C@H](Cc2ccc(O)cc2)NC1=O [compound 23] (cyclo(YR[Cit]FRF[dP]RR[2Nal]VY[Cit]K[dP]P)),CC50 at 48 h,in vitro,49 µM
same,Hemolysis at 100 μM,[1],1.4%
same,IC50,CXCR4,1550 nM
CC(C)[C@@H]1NC(=O)[C@H](CCCNC(N)=O)NC(=O)[C@H](CCCNC(=N)N)NC(=O)[C@H](Cc2ccc(O)cc2)NC(=O)[C@@H]2CCCN2C(=O)[C@H]2CCCN2C(=O)[C@H](CCCCN)NC(=O)[C@H](CCCNC(N)=O)NC(=O)[C@H](Cc2ccc(O)cc2)NC(=O)[C@H](Cc2ccccc2)NC(=O)[C@H](Cc2ccc3ccccc3c2)NC(=O)[C@H](CCCNC(=N)N)NC(=O)[C@H](CCCNC(=N)N)NC(=O)[C@H](CCCNC(=N)N)NC1=O [compound 4] (cyclo(YR[Cit]VRRR[2Nal]FY[Cit]K[dP]P)),CC50 at 48 h,in vitro,191 µM
same,Hemolysis at 100 μM,[1],0.7%
same,IC50,CXCR4,2540 nM
CC(C)[C@@H]1NC(=O)[C@H](CCCNC(N)=O)NC(=O)[C@H](CCCNC(=N)N)NC(=O)[C@H](Cc2ccc(O)cc2)NC(=O)[C@@H]2CCCN2C(=O)[C@H]2CCCN2C(=O)[C@H](CCCCN)NC(=O)[C@H](CCCNC(N)=O)NC(=O)[C@H](Cc2ccc(O)cc2)NC(=O)[C@H](C(C)C)NC(=O)[C@H](Cc2ccc3ccccc3c2)NC(=O)[C@H](CCCNC(=N)N)NC(=O)[C@H](CCCNC(=N)N)NC(=O)[C@H]2CCCN2C(=O)CNC(=O)[C@H](CCCNC(=N)N)NC1=O [compound 45] (cyclo(YR[Cit]VRG[dP]RR[2Nal]VY[Cit]K[dP]P)),CC50 at 48 h,in vitro,132 µM
same,Hemolysis at 100 μM,[1],0.4%
same,FIGS % inhibition at 200 nM,[3],65.1%
